Data published in patent US11814391B2, “Macrocyclic compounds for the treatment of medical disorders” (Achillion Pharmaceuticals, Inc., priority 2018, dated 2023).

Each compound was assayed against Human Factor D (Homo sapiens (Human), UniProt P00746) (assay: Human Factor D assay). Details: not given.
Assay type: biochemical
Procedure: The assay of Example 3 was used to determine the IC50's of the compounds. Other standard factor D inhibition assays are also available.
Human Factor D (purified from human serum, Complement Technology, Inc.) at 80 nM final concentration is incubated with test compound at various concentrations for 5 min at room temperature in 50 mM Tris, 1M NaCl, pH 7.5. A synthetic substrate Z-L-Lys-SBzI and DTNB (Ellman's reagent) are added to final concentrations of 100 μM each. Absorbance at 405 nm (A405) is recorded at 30 second intervals for 30 min using a microplate spectrophotometer. IC50 values are calculated by nonlinear regression of complement Factor D reaction rates as a function of test compound concentration.

Chain of Human Factor D (P00746 26-253): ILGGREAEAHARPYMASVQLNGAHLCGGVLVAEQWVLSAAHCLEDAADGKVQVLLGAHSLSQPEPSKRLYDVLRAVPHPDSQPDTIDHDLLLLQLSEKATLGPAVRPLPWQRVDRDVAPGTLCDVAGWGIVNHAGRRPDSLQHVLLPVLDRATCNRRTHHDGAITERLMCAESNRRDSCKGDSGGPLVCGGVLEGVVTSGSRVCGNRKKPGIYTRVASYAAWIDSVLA

SMILES	IC50
CC(=O)c1nn2c3c(cc(-c4cnc(C)nc4)cc13)CCCCCCCCCCN([C@@H](C)C(=O)Nc1nc(Br)ccc1C)C(=O)C2 [Compound 35, (S)-2-(2-acetyl-4-(2-methylpyrimidin-5-yl)-17-oxo-8,9,10,11,12,13,14,15,17,18-decahydro-6H-[1,4]diazacyclohexadecino[15,16,1-hi]indazol-16(7H)-yl)-N-(6-bromo-3-methylpyridin-2-yl)propanamide]	1000 to 10000 nM

Same assay, conditions: Human Factor D 80 nM, substrate Z-L-Lys-SBzl, A405; read-out: IC50 (Stars)

SMILES	IC50
CC(=O)c1nn2c3c(cc(-c4cnc(C)nc4)cc13)CCCC[C@@H](C)CC(=O)NC[C@@]13C[C@@H](C(=O)Nc4nc(C(F)(F)F)ccc4C)N(C(=O)C2)[C@@H]1C3 [Compound 34, (4^1R,4^3S,4^5R,9R)-1^3-acetyl-9-methyl-N-(3-methyl-6-(trifluoromethyl)pyridin-2-yl)-1^5-(2-methylpyrimidin-5-yl)-3,7-dioxo-1^1H-4^2,6-diaza-1(1,7)-indazola-4(2,5)-bicyclo[3.1.0]hexanacyclotridecaphane-4^3-carboxamide]	< 1000 nM
CC(=O)c1nn2c3c(cc(-c4cnc(C)nc4)cc13)CNCCCCCOC[C@@]13C[C@@H](C(=O)Nc4nc(C(F)(F)F)ccc4C)N(C(=O)C2)[C@@H]1C3 [Compound 36, (4^1R,4^3S,4^5S)-1^3-acetyl-N-(3-methyl-6-(trifluoromethyl)pyridin-2-yl)-1^5-(2-methylpyrimidin-5-yl)-3-oxo-1^1H-6-oxa-4^2,12-diaza-1(1,7)-indazola-4(2,5)-bicyclo[3.1.0]hexanacyclotridecaphane-4^3-carboxamide]	< 1000 nM
CC(=O)c1nn2c3c(cc(-c4cnc(C)nc4)cc13)CNCC/C=C/COC[C@@]13C[C@@H](C(=O)Nc4nc(C(F)(F)F)ccc4C)N(C(=O)C2)[C@@H]1C3 [Compound 37, (4^1R,4^3S,4^5S,E)-1^3-acetyl-N-(3-methyl-6-(trifluoromethyl)pyridin-2-yl)-1^5-(2-methylpyrimidin-5-yl)-3-oxo-1^1H-6-oxa-4^2,12-diaza-1(1,7)-indazola-4(2,5)-bicyclo[3.1.0]hexanacyclotridecaphan-8-ene-4^3-carboxamide]	< 1000 nM
CC(=O)c1nn2c3c(cc(-c4cnc(C)nc4)cc13)CCCCCCCCCc1ccc(Br)nc1NC(=O)[C@H](C)N(C)C(=O)C2 [Compound 38, (S)-13-acetyl-3-bromo-7,8-dimethyl-15-(2-methylpyrimidin-5-yl)-5,7,8,17,18,19,20,21,22,23,24,25-dodecahydro-6H-pyrido[2′,3′:8,9][1,4,7]triazacycloicosino[19,20,1-hi]indazole-6,9(10H)-dione]	> 10000 nM
CC(=O)c1nn2c3c(cc(NCC4CCCCC4)cc13)CCCCCCC(=O)NC[C@@]13C[C@@H](C(=O)Nc4nc(C(F)(F)F)ccc4C)N(C(=O)C2)[C@@H]1C3 [Compound 39, (4^1R,4^3S,4^5R)-1^3-acetyl-1^5-((cyclohexylmethyl)amino)-N-(3-methyl-6-(trifluoromethyl)pyridin-2-yl)-3,7-dioxo-1^1H-4^2,6-diaza-1(1,7)-indazola-4(2,5)-bicyclo[3.1.0]hexanacyclotridecaphane-4^3-carboxamide]	< 1000 nM
CC(=O)c1nn2c3c(cc(-c4cnc(C)nc4)cc13)CCCCCCCCO[C@@H]1CCN(C(=O)C2)[C@@H]1C(=O)NCc1cccc(Cl)c1F [Compound 40, (4^2S,4^3R)-1^3-acetyl-N-(3-chloro-2-fluorobenzyl)-1^5-(2-methylpyrimidin-5-yl)-3-oxo-1^1H-5-oxa-1(1,7)-indazola-4(1,3)-pyrrolidinacyclotridecaphane-4^2-carboxamide]	< 1000 nM
CC(=O)c1nn2c3c(nc(C)cc13)C/C=C/CCCCCC(=O)NCc1ccc(Br)nc1NC(=O)[C@@H]1C[C@@]3(C)C[C@H]3N1C(=O)C2 [Compound 45, (20aS,21aR,22aR,E)-26-acetyl-17-bromo-2,21a-dimethyl-8,9,10,11,13,14,20a,21,21a,22,22a,24-dodecahydro-3,13,18,19,22b,24a,25-heptaazabenzo[15,16]cyclopropa[3′,4′]cyclopenta[1′,2′:19, 20]cyclodocosa[1,2,3-cd]indene-12,20,23(4H,7H,19H)-trione]	< 1000 nM
CC(=O)c1nn2c3c(cccc13)CC/C=C/CC(=O)NC[C@@]13C[C@@H](C(=O)Nc4nc(Br)ccc4C)N(C(=O)C2)[C@@H]1C3 [Compound 46, (41R,43S,45R,E)-13-acetyl-N-(6-bromo-3-methylpyridin-2-yl)-3,7-dioxo-11H-42,6-diaza-l(1,7)-indazola-4(2,5)-bicyclo[3.1.0]hexanacyclododecaphan-9-ene-43-carboxamide]	< 1000 nM
CC(=O)c1nn2c3c(cccc13)CC/C=C/CCC(=O)NC[C@@]13C[C@@H](C(=O)Nc4nc(Br)ccc4C)N(C(=O)C2)[C@@H]1C3 [Compound 47, (41R,43S,45R,E)-13-acetyl-N-(6-bromo-3-methylpyridin-2-yl)-3,7-dioxo-11H-42,6-diaza-1(1,7)-indazola-4(2,5)-bicyclo[3.1.0]hexanacyclotridecaphan-10-ene-43-carboxamide]	< 1000 nM
CC(=O)c1nn(CC(=O)N2[C@H]3C[C@]4(C[C@@H]24)Cn2cc(nn2)COCc2ccc(Br)nc2NC3=O)c2cnccc12 [Compound 48, (31R,33S,35R,Z)-32-(2-(3-acetyl-1H-pyrazolo[3,4-c]pyridin-1-yl)acetyl)-66-bromo-11H-8-oxa-32,5-diaza-6(2,3)-pyridina-1(1,4)-triazola-3(5,3)-bicyclo[3.1,0]hexanacyclononaphan-4-one]	< 1000 nM
CC(=O)c1nn2c3c(cc(-c4cnc(C)nc4)cc13)CCCCCCCCc1ccc(Br)nc1NC(=O)[C@H](C)N(C)C(=O)C2 [Compound 51, (S)-2-acetyl-16-bromo-20,21-dimethyl-4-(2-methylpyrimidin-5-yl)-6,7,8,9,10,11,12,13,20,21 - decahydropyrido[2′,3′:8,9][1,4,7]triazacyclononadecino [18,19,1-hi]indazole-19,22(18H,23H)-dione]	> 10000 nM
CC(=O)c1nn2c3c(cc(NCC4CCCCC4)cc13)CCCCCCC(=O)NCC13CC(C(=O)Nc4nc(C(F)(F)F)ccc4C)N(C(=O)C2)C1C3 [Compound 52, (41R,43S,45R)-13-acetyl-15-((cyclohexylmethyl)amino)-N-(3-methyl-6-(trifluoromethyl)pyridin-2-yl)-3,7-dioxo-11H-42,6-diaza-1(1,7)-indazola-4(2,5)-bicyclo[3.1.0]hexanacyclotridecaphane-43-carboxamide]	< 1000 nM
CC(=O)c1nn2c3c(cc(-c4cnc(C)nc4)cc13)CCCCCCCCCCCO[C@@H]1CCN(C(=O)C2)[C@@H]1C(=O)NCc1cccc(Cl)c1F [Compound 54, (42S,43R)-13-acetyl-N-(3-chloro-2-fluorobenzyl)-15-(2-methylpyrimidin-5-yl)-3-oxo-11H-5-oxa-1(1,7)-indazola-4(1,3)-pyrrolidinacyclohexadecaphane-42-carboxamide]	< 1000 nM
CC(=O)c1nn2c3c(cc(NC4CCCC4)cc13)CCCCCCC(=O)NCC13CC(C(=O)Nc4nc(C(F)(F)F)ccc4C)N(C(=O)C2)C1C3 [Compound 55, (41R,43S,45R)-13-acetyl-15-(cyclopentylamino)-N-(3-methyl-6-(trifluoromethyl)pyridin-2-yl)-3,7-dioxo-11H-42,6-diaza-1(1,7)-indazola-4(2,5)-bicyclo[3.1.0]hexanacyclotridecaphane-43-carboxamide]	< 1000 nM
CC(=O)c1nn2c3c(cc(-c4cnc(C)nc4)cc13)CCCCCCCCCC[C@@H](C(=O)Nc1nc(Br)ccc1C)N(C)C(=O)C2 [Compound 56, (S)-2-acetyl-N-(6-bromo-3-methylpyridin-2-yl)-17-methyl-4-(2-methylpyrimidin-5-yl)-18-oxo-6,7,8,9,10,11,12,13,14,15,16,17,18,19-tetradecahydro-[1,4]diazacycloheptadecino[16,17,1-hi]indazole-16-carboxamide]	> 10000 nM
CC(=O)c1nn2c3c(cc(NC(=O)C4CC4)cc13)CCCCCCC(=O)NCC13CC(C(=O)Nc4nc(C(F)(F)F)ccc4C)N(C(=O)C2)C1C3 [Compound 57, (41R,43S,45R)-13-acetyl-15-(cyclopropanecarboxamido)-N-(3-methyl-6-(trifluoromethyl)pyridin-2-yl)-3,7-dioxo-11H-42,6-diaza-1(1,7)-indazola-4(2,5)-bicyclo[3.1.0]hexanacyclotridecaphane-43-carboxamide]	< 1000 nM
CC(=O)c1nn2c3c(cc(-c4cnc(C)nc4)cc13)NCCCCCC(=O)NCC13CC(C(=O)Nc4nc(C(F)(F)F)ccc4C)N(C(=O)C2)C1C3 [Compound 58, (41R,43S,45R)-13-acetyl-N-(3-methyl-6-(trifluoromethyl)pyridin-2-yl)-15-(2-methylpyrimidin-5-yl)-3,7-dioxo-11H-42,6,13-triaza-1(1,7)-indazola-4(2,5)-bicyclo[3.1.0]hexanacyclotridecaphane-43-carboxamide]	< 1000 nM
CC(=O)c1nn2c3c(cc(-c4cnc(C)nc4)cc13)CCCCCC(C)(C)CNC[C@@]13C[C@@H](C(=O)Nc4nc(C(F)(F)F)ccc4C)N(C(=O)C2)[C@@H]1C3 [Compound 59, (41R,43S,45R)-13-acetyl-8,8-dimethyl-N-(3-methyl-6-(trifluoromethyl)pyridin-2-yl)-15-(2-methylpyrimidin-5-yl)-3-oxo-11H-42,6-diaza-1(1,7)-indazola-4(2,5)-bicyclo[3.1.0]hexanacyclotridecaphane-43-carboxamide]	< 1000 nM
CC(=O)c1nn2c3c(cc(-c4cnc(C)nc4)cc13)NC(=O)CCCCCOCC13CC(C(=O)Nc4nc(C(F)(F)F)ccc4C)N(C(=O)C2)C1C3 [Compound 60, (41R,43S,45S)-13-acetyl-N-(3-methyl-6-(trifluoromethyl)pyridin-2-yl)-15-(2-methylpyrimidin-5-yl)-3,12-dioxo-11H-6-oxa-42,13-diaza-1(1,7)-indazola-4(2,5)-bicyclo[3.1.0]hexanacyclotridecaphane-43-carboxamide]	< 1000 nM
